# Assay results: US12404285B2, “KRAS G12D proteolysis targeting chimeras” (PAQ Therapeutics Inc., priority 2022, dated 2025)
# Target: T1, KRAS in AGS cells (KRAS G12D mutant cell line) or LS180 cells (KRAS G12D mutant cell line) (Homo sapiens, UniProt P01116, G12D)
# T1 construct: CRL-187 (LS180) (so in the source); host or cells: AGS or LS180 cells
# Experiment: KRAS Western Blot (WB) assay
# Format: cell-based
# Details: KRAS degradation, 24 hours incubation, normalized to β-actin
# Method: Day 1. Seeded AGS cells (KRAS G12D mutant cell line, ATCC, CRL-1739) or LS180 cells (KRAS G12D mutant cell line, ATCC, CRL-187) into 6-well plates (cell density: 3×10^5 cells/well/2 ml medium) in Ham's F-12 medium (Invitrogen, 11765-054) or Eagle's Minimum Essential Medium (ATCC, 30-2003) and incubated overnight at 37° C. and 5% CO2.
# Day 2. Aspirated 1 ml medium from each well and added 1 ml medium containing DMSO or test compound into the well to achieve the desired final concentration. Mixed well by gentle shaking and incubated for 24 hours.
# Day 3. Aspirated media from plates; washed cells with 2 ml 4° C. PBS (Solarbio, P1020-500) and aspirated the PBS. Then added 100 μl 4° C. […] lysis buffer (Boston BioProducts BP-115D) with protease and phosphatase inhibitors at vendor recommended concentrations (Roche 05892791001 and 04906837001) into each well to lyse the cells, and incubated for 20 minutes at 4° C. Cell lysate was collected into 1.5 ml Eppendorf tube, and the lysate was sonicated at 4° C. for 2 minutes (5 second pulse at 30% power with 10 second intermissions). The lysate was centrifuged at 12,000 rpm for 15 minutes at 4° C. The supernatant was transferred to a fresh Eppendorf tube, and protein concentration was quantified using a BCA kit (Solarbio, PC0020-500). Mixed the cell lysate and 5×NuPAGE SDS Loading Buffer (Beyotime, P0015L), and heated at 95° C. for 10 minutes in a heat block. Prepared samples were stored at −80° C. until SDS-PAGE procedure.
# Day 4. Loaded 15 μg protein from each sample onto NuPAGE® Novex 4-12% Bis-Tris Midi Gel, 26 W (Invitrogen, WG1403BOX) and ran the gel at 120V for 1.5 hours in 1×NuPAGE® MOPS SDS Running Buffer (Novex, NP0001). Electrotransferred to nitrocellulose membrane using dry transfer method (iBlot 2 Transfer Stacks, nitrocellulose, IB23001) with a program consisting of 20V for 1 minute, 23V for 4 minutes and 25V for 2 minutes. Blocked the membrane with 5% BSA (Solarbio, A8020) in 1×TBST (CST, 9997S) for 1 hour at room temperature. Incubated with KRAS antibody (LSBio, LS-C175665, clone 2C1) at 1:1000 dilution and β-actin antibody at 1:1000 dilution (CST, 4970S) in TBST containing 1% BSA (Solarbio, A8020) at 4° C. overnight.
# Day 5. Washed nitrocellulose membrane three times with 1×TBST for 10 minutes each at room temperature. Incubated with fluorescently labeled secondary antibodies at 1:5000 dilution in TBST containing 1% BSA (anti-rabbit IgG, Licor, 926-32211; anti-mouse IgG, LI-COR, 926-68070) for 1 hour at room temperature. Washed membrane three times with TBST, 10 minutes each. Scanned the membrane on LiCOR scanner for fluorescent signal(s) and quantified KRAS bands and β-actin bands for normalization.
# The data are reported in Table 2, wherein “A” indicates a DC50 of less than 1 μM; “B” indicates a DC50 of greater than or equal to 1 μM and less than 10 μM; and “C” indicates a DC50 of greater than or equal to 10 μM.
# T1 sequence (P01116 1-188 isoform P01116-2 G12D): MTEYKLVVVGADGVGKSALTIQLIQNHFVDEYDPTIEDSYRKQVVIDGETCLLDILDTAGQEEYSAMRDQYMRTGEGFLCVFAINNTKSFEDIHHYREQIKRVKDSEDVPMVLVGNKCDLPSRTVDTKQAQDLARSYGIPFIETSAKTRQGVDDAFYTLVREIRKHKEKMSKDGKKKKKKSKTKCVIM
row,Structure (SMILES),DC50
1,"C#Cc1c(F)ccc2cc(O)cc(-c3ncc4c(N5CC6CCC(C5)N6)nc(OC[C@@]56CCCN5[C@H](COC(=O)NCCCCCCCCCNc5cccc7c5C(=O)N(C5CCC(=O)NC5=O)C7=O)CC6)nc4c3F)c12 (stereo partly drawn) [Compound 016, ((3S,7aS)-7a-(((4-(3,8-diazabicyclo[3.2.1]octan-3-yl)-7-(8-ethynyl-7-fluoro-3-hydroxynaphthalen-1-yl)-8-fluoropyrido[4,3-d]pyrimidin-2-yl)oxy)methyl)hexahydro-1H-pyrrolizin-3-yl)methyl (9-((2-(2,6-dioxopiperidin-3-yl)-1,3-dioxoisoindolin-4-yl)amino)nonyl)carbamate]",A (DC50 less than 1 μM)
2,"C#Cc1c(F)ccc2cc(O)cc(-c3ncc4c(N5CC6CCC(C5)N6)nc(OC[C@@]56CCCN5[C@H](COC(=O)NCCCCCCNc5ccc7c(c5)C(=O)N(C5CCC(=O)NC5=O)C7=O)CC6)nc4c3F)c12 (stereo partly drawn) [Compound 017, [(3S,8S)-8-[[4-(3,8-diazabicyclo[3.2.1]octan-3-yl)-7-(8-ethynyl-7-fluoro-3-hydroxy-1-naphthyl)-8-fluoro-pyrido[4,3-d]pyrimidin-2-yl]oxymethyl]-1,2,3,5,6,7-hexahydropyrrolizin-3-yl]methyl N-[6-[[2-(2,6-dioxo-3-piperidyl)-1,3-dioxo-isoindolin-5-yl]amino]hexyl]carbamate]",B (DC50 greater than or equal to 1 μM and less than 10 μM)
3,C#Cc1c(F)ccc2cc(O)cc(-c3ncc4c(N5CC6CCC(C5)N6)nc(OC[C@@]56CCCN5[C@H](COC(=O)NCCCCCCCCNc5cccc7c5C(=O)N(C5CCC(=O)NC5=O)C7=O)CC6)nc4c3F)c12 (stereo partly drawn) [Compound 018],B (DC50 greater than or equal to 1 μM and less than 10 μM)
4,"C#Cc1c(F)ccc2cc(O)cc(-c3ncc4c(N5CC6CCC(C5)N6)nc(OC[C@@]56CCCN5[C@H](COC(=O)NCCCCCCNc5cccc7c5C(=O)N(C5CCC(=O)NC5=O)C7=O)CC6)nc4c3F)c12 (stereo partly drawn) [Compound 021, [(3S,8S)-8-[[4-(3,8-diazabicyclo[3.2.1]octan-3-yl)-7-(8-ethynyl-7-fluoro-3-hydroxy-1-naphthyl)-8-fluoro-pyrido[4,3-d]pyrimidin-2-yl]oxymethyl]-1,2,3,5,6,7-hexahydropyrrolizin-3-yl]methylN-[6-[[2-(2,6-dioxo-3-piperidyl)-1,3-dioxo-isoindolin-4-yl]amino]hexyl]carbamate]",B (DC50 greater than or equal to 1 μM and less than 10 μM)
5,C#Cc1c(F)ccc2cc(O)cc(-c3ncc4c(N5CC6CCC(C5)N6)nc(OC[C@]56CCCN5[C@@H](COC(=O)NCCOCCOCCNc5cccc7c5C(=O)N(C5CCC(=O)NC5=O)C7=O)CC6)nc4c3F)c12 (stereo partly drawn) [Compound 025],C (DC50 greater than or equal to 10 μM)
6,"C#Cc1c(F)ccc2cc(O)cc(-c3ncc4c(N5CC6CCC(C5)N6)nc(OC[C@@]56CCCN5[C@H](COC(=O)NCCOCCOCCOCCNc5cccc7c5C(=O)N(C5CCC(=O)NC5=O)C7=O)CC6)nc4c3F)c12 (stereo partly drawn) [Compound 027, [(3R,8R)-8-[[4-(3,8-diazabicyclo[3.2.1]octan-3-yl)-7-(8-ethynyl-7-fluoro-3-hydroxy-1-naphthyl)-8-fluoro-pyrido[4,3-d]pyrimidin-2-yl]oxymethyl]-1,2,3,5,6,7-hexahydropyrrolizin-3-yl]methyl N-[2-[2-[2-[2-[[2-(2,6-dioxo-3-piperidyl)-1,3-dioxo-isoindolin-4-yl]amino]ethoxy]ethoxy]ethoxy]ethyl]carbamate]",C (DC50 greater than or equal to 10 μM)

# Second part, the compound after the results:
row,DC50,Structure (SMILES)
1,A (DC50 less than 1 μM),"C#Cc1c(F)ccc2cc(O)cc(-c3ncc4c(N5C[C@H]6CC[C@@H](C5)N6)nc(OC[C@@]56CCCN5[C@H](COC(=O)NCCCCCCCCCCc5ccc7c(c5)n(C)c(=O)n7C5CCC(=O)NC5=O)CC6)nc4c3F)c12 (stereo partly drawn) [Compound 013, ((3S,7aS)-7a-(((4-((1R,5S)-3,8-diazabicyclo[3.2.1]octan-3-yl)-7-(8-ethynyl-7-fluoro-3-hydroxynaphthalen-1-yl)-8-fluoropyrido[4,3-d]pyrimidin-2-yl)oxy)methyl)hexahydro-1H-pyrrolizin-3-yl)methyl (10-(1-(2,6-dioxopiperidin-3-yl)-3-methyl-2-oxo-2,3-dihydro-1H-benzo[d]imidazol-5-yl)decyl) carbamate]"
2,A (DC50 less than 1 μM),"C#Cc1c(F)ccc2cc(O)cc(-c3ncc4c(N5CC6CCC(C5)N6)nc(OC[C@@]56CCCN5[C@H](COC(=O)NCCCCCCCCCCc5cccc7c5n(C)c(=O)n7C5CCC(=O)NC5=O)CC6)nc4c3F)c12 (stereo partly drawn) [Compound 014, [(3S,8S)-8-[[4-(3,8-diazabicyclo[3.2.1]octan-3-yl)-7-(8-ethynyl-7-fluoro-3-hydroxy-1-naphthyl)-8-fluoro-pyrido[4,3-d]pyrimidin-2-yl]oxymethyl]-1,2,3,5,6,7-hexahydropyrrolizin-3-yl]methyl N-[10-[1-(2,6-dioxo-3-piperidyl)-3-methyl-2-oxo-benzimidazol-4-yl]decyl]carbamate]"
3,A (DC50 less than 1 μM),"C#Cc1c(F)ccc2cc(O)cc(-c3ncc4c(N5CC6CCC(C5)N6)nc(OC[C@@]56CCCN5[C@H](COC(=O)NCCCCCCCCCCNc5ccc7c(c5)C(=O)N(C5CCC(=O)NC5=O)C7=O)CC6)nc4c3F)c12 (stereo partly drawn) [Compound 015, [(3S,8S)-8-[[4-(3,8-diazabicyclo[3.2.1]octan-3-yl)-7-(8-ethynyl-7-fluoro-3-hydroxy-1-naphthyl)-8-fluoro-pyrido[4,3-d]pyrimidin-2-yl]oxymethyl]-1,2,3,5,6,7-hexahydropyrrolizin-3-yl]methyl N-[10-[[2-(2,6-dioxo-3-piperidyl)-1,3-dioxo-isoindolin-5-yl]amino]decyl]carbamate]"
4,C (DC50 greater than or equal to 10 μM),"C#Cc1c(F)ccc2cc(O)cc(-c3ncc4c(N5CC6CCC(C5)N6)nc(OC[C@@]56CCCN5[C@H](COC(=O)NCCCCNc5cccc7c5C(=O)N(C5CCC(=O)NC5=O)C7=O)CC6)nc4c3F)c12 (stereo partly drawn) [Compound 019, [(3S,8S)-8-[[4-(3,8-diazabicyclo[3.2.1]octan-3-yl)-7-(8-ethynyl-7-fluoro-3-hydroxy-1-naphthyl)-8-fluoro-pyrido[4,3-d]pyrimidin-2-yl]oxymethyl]-1,2,3,5,6,7-hexahydropyrrolizin-3-yl]methyl-N-[4-[[2-(2,6-dioxo-3-piperidyl)-1,3-dioxo-isoindolin-4-yl]amino]butyl]carbamate]"
5,C (DC50 greater than or equal to 10 μM),"C#Cc1c(F)ccc2cc(O)cc(-c3ncc4c(N5CC6CCC(C5)N6)nc(OC[C@@]56CCCN5[C@H](COC(=O)NCCCNc5cccc7c5C(=O)N(C5CCC(=O)NC5=O)C7=O)CC6)nc4c3F)c12 (stereo partly drawn) [Compound 020, [(3S,8S)-8-[[4-(3,8-diazabicyclo[3.2.1]octan-3-yl)-7-(8-ethynyl-7-fluoro-3-hydroxy-1-naphthyl)-8-fluoro-pyrido[4,3-d]pyrimidin-2-yl]oxymethyl]-1,2,3,5,6,7-hexahydropyrrolizin-3-yl]methylN-[3-[[2-(2,6-dioxo-3-piperidyl)-1,3-dioxo-isoindolin-4-yl]amino]propyl]carbamate]"
6,C (DC50 greater than or equal to 10 μM),"C#Cc1c(F)ccc2cc(O)cc(-c3ncc4c(N5CC6CCC(C5)N6)nc(OC[C@]56CCCN5[C@@H](COC(=O)NCCCCCCNc5cccc7c5C(=O)N(C5CCC(=O)NC5=O)C7=O)CC6)nc4c3F)c12 (stereo partly drawn) [Compound 022, [(3R,8R)-8-[[4-(3,8-diazabicyclo[3.2.1]octan-3-yl)-7-(8-ethynyl-7-fluoro-3-hydroxy-1-naphthyl)-8-fluoro-pyrido[4,3-d]pyrimidin-2-yl]oxymethyl]-1,2,3,5,6,7-hexahydropyrrolizin-3-yl]methyl N-[6-[[2-(2,6-dioxo-3-piperidyl)-1,3-dioxo-isoindolin-4-yl]amino]hexyl]carbamate]"
